# Measured values: ChEMBL document CHEMBL3885881, “DrugMatrix”
# Organism: Rattus norvegicus
# Assay: DrugMatrix - Regimen: Daily Repeat
# Type: toxicity, organism-based, Sprague-Dawley
# Design: regimen Daily Repeat, gender Male, age 6-8 weeks
# Conditions: in vivo, po, route oral GAVAGE, vehicle 100 % WATER; for ABSOLUTE BASOPHIL / ABSOLUTE EOSINOPHIL / ABSOLUTE LYMPHOCYTE / ABSOLUTE MONOCYTE / ABSOLUTE SEGMENTED NEUTROPHIL / BASOPHIL / EOSINOPHIL / ERYTHROCYTE COUNT / HEMATOCRIT / HEMOGLOBIN / LEUKOCYTE COUNT / LYMPHOCYTE / MEAN CORPUSCULAR HEMOGLOBIN / MEAN CORPUSCULAR HEMOGLOBIN CONCENTRATION / MEAN CORPUSCULAR VOLUME / MONOCYTE / NEUTROPHIL / NUCLEATED RED BLOOD CELLS / PLATELET COUNT: tissue Blood; for ALANINE AMINOTRANSFERASE / ALBUMIN / ALKALINE PHOSPHATASE / ASPARTATE AMINOTRANSFERASE / BLOOD UREA NITROGEN / CARBON DIOXIDE / CHLORIDE / CHOLESTEROL / CREATINE PHOSPHOKINASE / CREATININE / GLUCOSE / LACTATE DEHYDROGENASE / LIPASE / PHOSPHORUS / POTASSIUM / SODIUM / TOTAL BILIRUBIN / TOTAL PROTEIN / URIC ACID: tissue Plasma
# [1] = 10 mg/kg, 120 h, dose level Low, time 5 day
# [2] = 230 mg/kg, 72 h, dose level High, time 3 day
# [3] = 230 mg/kg, 120 h, dose level High, time 5 day
smiles,measurement,setting,value
CCN(CC)CC#CCOC(=O)C(O)(c1ccccc1)C1CCCCC1 (centres undefined) [OXYBUTYNIN],ABSOLUTE BASOPHIL,[1],0 CELLS/uL
same,ABSOLUTE EOSINOPHIL,[1],0 CELLS/uL
same,ABSOLUTE LYMPHOCYTE,[1],12363 CELLS/uL
same,ABSOLUTE MONOCYTE,[1],41 CELLS/uL
same,ABSOLUTE SEGMENTED NEUTROPHIL,[1],1896 CELLS/uL
same,BASOPHIL,[1],0%
same,EOSINOPHIL,[1],0%
same,ERYTHROCYTE COUNT,[1],5.64 x10E6/uL
same,HEMATOCRIT,[1],34.63%
same,HEMOGLOBIN,[1],13.8 G/DL
same,LEUKOCYTE COUNT,[1],14.3 x10E3/uL
same,LYMPHOCYTE,[1],86.33%
same,MEAN CORPUSCULAR HEMOGLOBIN,[1],24.47 pg
same,MEAN CORPUSCULAR HEMOGLOBIN CONCENTRATION,[1],39.83 G/DL
same,MEAN CORPUSCULAR VOLUME,[1],61.4 fL
same,MONOCYTE,[1],0.33%
same,NEUTROPHIL,[1],13.33%
same,NUCLEATED RED BLOOD CELLS,[1],0 /100WBC
same,PLATELET COUNT,[1],1196.33 x10E3/uL
same,ALANINE AMINOTRANSFERASE,[1],57 u/L
same,ALBUMIN,[1],4.07 G/DL
same,ALKALINE PHOSPHATASE,[1],391.67 u/L
same,ASPARTATE AMINOTRANSFERASE,[1],79 u/L
same,BLOOD UREA NITROGEN,[1],17.67 mg/dL
same,CARBON DIOXIDE,[1],27 mmol/L
same,CHLORIDE,[1],99.67 MEQ/L
same,CHOLESTEROL,[1],67 mg/dL
same,CREATINE PHOSPHOKINASE,[1],306.33 u/L
same,CREATININE,[1],0.2 mg/dL
same,GLUCOSE,[1],152.33 mg/dL
same,LACTATE DEHYDROGENASE,[1],146.67 u/L
same,LIPASE,[1],9 u/L
same,PHOSPHORUS,[1],11.87 mg/dL
same,POTASSIUM,[1],6.33 MEQ/L
same,SODIUM,[1],141.53 MEQ/L
same,TOTAL BILIRUBIN,[1],0.23 mg/dL
same,TOTAL PROTEIN,[1],5.87 G/DL
same,URIC ACID,[1],1.93 mg/dL
same,ABSOLUTE BASOPHIL,[2],0 CELLS/uL
same,ABSOLUTE EOSINOPHIL,[2],99.33 CELLS/uL
same,ABSOLUTE LYMPHOCYTE,[2],11911 CELLS/uL
same,ABSOLUTE MONOCYTE,[2],110.67 CELLS/uL
same,ABSOLUTE SEGMENTED NEUTROPHIL,[2],1845.67 CELLS/uL
same,BASOPHIL,[2],0%
same,EOSINOPHIL,[2],0.67%
same,ERYTHROCYTE COUNT,[2],6.5 x10E6/uL
same,HEMATOCRIT,[2],39.53%
same,HEMOGLOBIN,[2],15.4 G/DL
same,LEUKOCYTE COUNT,[2],13.97 x10E3/uL
same,LYMPHOCYTE,[2],85.67%
same,MEAN CORPUSCULAR HEMOGLOBIN,[2],23.7 pg
same,MEAN CORPUSCULAR HEMOGLOBIN CONCENTRATION,[2],38.93 G/DL
same,MEAN CORPUSCULAR VOLUME,[2],60.77 fL
same,MONOCYTE,[2],0.67%
same,NEUTROPHIL,[2],13%
same,NUCLEATED RED BLOOD CELLS,[2],0 /100WBC
same,PLATELET COUNT,[2],1396.33 x10E3/uL
same,ALANINE AMINOTRANSFERASE,[2],51.33 u/L
same,ALBUMIN,[2],4.33 G/DL
same,ALKALINE PHOSPHATASE,[2],293.33 u/L
same,ASPARTATE AMINOTRANSFERASE,[2],83.33 u/L
same,BLOOD UREA NITROGEN,[2],16 mg/dL
same,CARBON DIOXIDE,[2],29.67 mmol/L
same,CHLORIDE,[2],98 MEQ/L
same,CHOLESTEROL,[2],57.33 mg/dL
same,CREATINE PHOSPHOKINASE,[2],488 u/L
same,CREATININE,[2],0.18 mg/dL
same,GLUCOSE,[2],140.67 mg/dL
same,LACTATE DEHYDROGENASE,[2],180 u/L
same,LIPASE,[2],9.67 u/L
same,PHOSPHORUS,[2],11.4 mg/dL
same,POTASSIUM,[2],6.48 MEQ/L
same,SODIUM,[2],141.17 MEQ/L
same,TOTAL BILIRUBIN,[2],0.23 mg/dL
same,TOTAL PROTEIN,[2],5.87 G/DL
same,URIC ACID,[2],2.47 mg/dL
same,ABSOLUTE BASOPHIL,[3],0 CELLS/uL
same,ABSOLUTE EOSINOPHIL,[3],0 CELLS/uL
same,ABSOLUTE LYMPHOCYTE,[3],14094.33 CELLS/uL
same,ABSOLUTE MONOCYTE,[3],0 CELLS/uL
same,ABSOLUTE SEGMENTED NEUTROPHIL,[3],1405.67 CELLS/uL
same,BASOPHIL,[3],0%
same,EOSINOPHIL,[3],0%
same,ERYTHROCYTE COUNT,[3],6.31 x10E6/uL
same,HEMATOCRIT,[3],37.53%
same,HEMOGLOBIN,[3],15.13 G/DL
same,LEUKOCYTE COUNT,[3],15.5 x10E3/uL
same,LYMPHOCYTE,[3],90.67%
same,MEAN CORPUSCULAR HEMOGLOBIN,[3],23.97 pg
same,MEAN CORPUSCULAR HEMOGLOBIN CONCENTRATION,[3],40.33 G/DL
same,MEAN CORPUSCULAR VOLUME,[3],59.43 fL
same,MONOCYTE,[3],0%
same,NEUTROPHIL,[3],9.33%
same,NUCLEATED RED BLOOD CELLS,[3],0 /100WBC
same,PLATELET COUNT,[3],1402.33 x10E3/uL
same,ALANINE AMINOTRANSFERASE,[3],64.67 u/L
same,ALBUMIN,[3],4.33 G/DL
same,ALKALINE PHOSPHATASE,[3],412.33 u/L
same,ASPARTATE AMINOTRANSFERASE,[3],87 u/L
same,BLOOD UREA NITROGEN,[3],15.67 mg/dL
same,CARBON DIOXIDE,[3],26.67 mmol/L
same,CHLORIDE,[3],100.33 MEQ/L
same,CHOLESTEROL,[3],59.67 mg/dL
same,CREATINE PHOSPHOKINASE,[3],224 u/L
same,CREATININE,[3],0.17 mg/dL
same,GLUCOSE,[3],140.33 mg/dL
same,LACTATE DEHYDROGENASE,[3],208.33 u/L
same,LIPASE,[3],9.33 u/L
same,PHOSPHORUS,[3],10 mg/dL
same,POTASSIUM,[3],6.76 MEQ/L
same,SODIUM,[3],143.4 MEQ/L
same,TOTAL BILIRUBIN,[3],0.2 mg/dL
same,TOTAL PROTEIN,[3],5.9 G/DL
same,URIC ACID,[3],2.23 mg/dL
